Holding throughout (assay): NCI-60 cell line screen, 48 h
For assay [1], the system named is UO-31.
For assay [2], the system named is NCI-H460.
The test system of assay [3] is HOP-92.
Assay [4] deals with SK-OV-3.
Assay [5] concerns 786-0.
The subject of assay [6] is A498.
The subject of assay [7] is SF-295.
Assay [8] deals with OVCAR-3.
The subject of assay [9] is SK-MEL-28.
Assay [10] relates to K562.
Assay [11] relates to CAKI-1.
Assay [12] deals with OVCAR-4.
For assay [13], the system named is NCI/ADR-RES.
Assay [14] relates to ACHN.
The test system of assay [15] is A549.
The test system of assay [16] is COLO 205.
Assay [17] concerns U-251.
The subject of assay [18] is OVCAR-5.
Assay [19] relates to KM12.
For assay [20], the system named is HCT-15.

The structures appear in SMILES notation.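 Each compound was tested at five concentrations against cells in 96-well plates for 48 hours. Abbreviation: GI50, concentration required for 50% inhibition of growth.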 Activity calls are given as the source filed them. Cut-off read from the data, not from the text of the source: active = GI50 up to about 1.1 µM and inactive = higher.

On to `COc1cc(/C=C2/SC(c3ccccc3)N(c3ccccc3)C2=O)cc(OC)c1OC` (stereo not given), for which the GI50 in assay [1] is 29.5 µM (inactive); in [2], 76 µM (inactive); in assay [3] it was > 100 µM (inactive); in assay [4] it was 35.8 µM (inactive); in assay [5] it was > 100 µM (inactive); in assay [6] it was > 100 µM (inactive). The GI50 was 27 µM (inactive) in [7]; 65.6 µM (inactive) in assay [8]; > 100 µM (inactive) in [9]; 8.97 µM (inactive) in assay [10]; > 100 µM (inactive) in [11]; 69.5 µM (inactive) in [12]. Moreover, the GI50 in assay [13] was 48.2 µM (inactive); in [14], 84.3 µM (inactive); in assay [15] it was > 100 µM (inactive); in [16] it was 36.9 µM (inactive); in assay [17], 59.6 µM (inactive); in assay [18], > 100 µM (inactive). The GI50 in assay [19] is 30.3 µM (inactive); in assay [20], 61.7 µM.

Turning to `CC1CC(C)CN(S(=O)(=O)c2cc(Cl)c(Oc3ccc([N+](=O)[O-])cc3Cl)c(Cl)c2)C1` (stereo not given), the GI50 in assay [1], in [2], in assay [3], in [4], in assay [5] and in [6] was > 100 µM (inactive) in each case. The GI50 in assay [7], in [8], in assay [9], in assay [10], in [11] and in [12] was > 100 µM (inactive) throughout. In addition, the GI50 in [13], in assay [14], in assay [15], in [16], in [17] and in [18] was > 100 µM (inactive) in each case. Further, the figures for the GI50 in assay [19] and in assay [20] were > 100 µM (inactive) and above 100 µM, respectively.

As for `CCOC(=O)CCSS(=O)(=O)c1ccccc1`, the GI50 in assay [1] was > 10 µM (inactive); in assay [2], > 100 µM (inactive); in assay [3], 86.7 µM (inactive); in [4], > 100 µM (inactive); in [5] it was 26 µM (inactive); in assay [6], > 100 µM (inactive). Further, the GI50 in assay [7], in [8], in assay [9], in [11], in assay [12] and in assay [13] was > 100 µM (inactive) in each case. The GI50 was > 100 µM (inactive) in assay [14]; > 100 µM (inactive) in assay [15]; 97.7 µM (inactive) in assay [16]; > 100 µM (inactive) in [17]; 92.9 µM (inactive) in assay [18]; > 100 µM (inactive) in assay [19]. The compound further showed a GI50 in [20] of 53.2 µM.

Turning to `N#Cc1cc(C#N)c(N)nc1N`, the GI50 in assay [1], in [2], in assay [3], in assay [4], in assay [5] and in [6] was > 100 µM (inactive) throughout. Also, the GI50 in assay [7], in assay [8], in assay [10], in assay [11], in assay [12] and in assay [13] was > 100 µM (inactive) in each case. The GI50 in assay [14], in [15], in assay [16], in assay [17], in assay [18] and in assay [19] was > 100 µM (inactive) throughout. For the same compound, the GI50 in [20] is above 100 µM.

With `OCCSCC(O)Cn1cnc2c(O)nc(Nc3ccccc3)nc21` (stereo not given), the GI50 in [2], in [3], in [4], in assay [5], in assay [6] and in assay [7] was > 100 µM (inactive) each time. Moreover, the GI50 in [8], in assay [9], in [11], in assay [12], in [13] and in assay [14] was > 100 µM (inactive) each time. In addition, the GI50 is > 100 µM (inactive) in [15]; > 100 µM (inactive) in [16]; > 100 µM (inactive) in assay [17]; > 100 µM (inactive) in assay [18]; > 100 µM (inactive) in assay [19]; above 100 µM in assay [20].

In the case of `CSc1c(C(N)=S)c(N)nn1-c1ccccc1`, the GI50 in assay [1], in assay [2], in [3], in [4], in assay [5] and in [6] was > 100 µM (inactive) each time. In addition, the GI50 in assay [8], in [9], in assay [10], in assay [11], in assay [12] and in assay [13] was > 100 µM (inactive) each time. In addition, the GI50 is > 100 µM (inactive) in assay [15]; > 100 µM (inactive) in assay [16]; > 100 µM (inactive) in [17]; > 100 µM (inactive) in assay [18]; > 100 µM (inactive) in assay [19]; above 100 µM in assay [20].

Consider `O=c1[nH]c(=O)n(C2OC(CO)C(O)C2O)cc1OCCc1ccccc1` (stereo not given), for which the GI50 in [2], in [3], in assay [4], in [5], in [6] and in assay [7] was > 100 µM (inactive) throughout. In addition, the GI50 in [8], in assay [9], in [11], in assay [12], in assay [13] and in assay [14] was > 100 µM (inactive) each time. Further, the GI50 was > 100 µM (inactive) in assay [15]; > 100 µM (inactive) in assay [16]; > 100 µM (inactive) in assay [18]; > 100 µM (inactive) in assay [19]; above 100 µM in [20].

For `CCCC/C=C1\CCC(CN2CCCCC2)C1=O` (stereo not given), the GI50 in assay [1] was 32.8 µM (inactive); in assay [2], 33.6 µM (inactive); in assay [3], 10.9 µM (inactive); in [4], > 42.1 µM (inactive); in [5] it was 6.31 µM (inactive); in assay [6], 25.7 µM (inactive). Besides, the GI50 in assay [7] is 30.5 µM (inactive); in [8], 29.8 µM (inactive); in [9], 21.3 µM (inactive); in assay [10], 7.82 µM (inactive); in assay [11], 9.48 µM (inactive); in assay [12] it was 30.5 µM (inactive). In addition, the GI50 is > 100 µM (inactive) in assay [13]; 29.3 µM (inactive) in [14]; 33.3 µM (inactive) in assay [15]; 12 µM (inactive) in assay [16]; 29.2 µM (inactive) in assay [17]; 34.7 µM (inactive) in assay [18]. Also, the GI50 in assay [20] is 9.06 µM.

The record behind these values is ChEMBL document CHEMBL1201862, “PubChem BioAssay data set” (2004).
